# Where two headings read alike, the source gives them in different places.
# How the values were obtained:
# [1] = test system: human gastric cancer cells MGC-803; test: Cell proliferation (MTT) assay, MGC-803; assay type: cell-based; conditions: read-out: IC50 MGC-803
# Experimental: (§1) The antiproliferative activities evaluation was conducted by using a modified procedure as described in the literature. Briefly, target tumour cells were grown to log phase in RPMI 1640 medium supplemented with 10% fetal bovine serum. After diluting to 3 × 10^4 cells mL^−1 with the complete medium, 100 µL of the obtained cell suspension was added to each well of 96-well culture plates. The subsequent incubation was performed at 37 °C, 5% CO2 atmosphere for 24 h before subjecting to antiproliferation assessment. The tested samples at pre-set concentrations were added to six wells with Doxorubicin (AMD) co-assayed as a positive reference. After 48 h of exposure period, 25 µL of PBS containing 2.5 mg·mL^−1 of MTT was added to each well. After 4 h, the medium was replaced by 150 µL DMSO to dissolve the purple formazan crystals produced. The absorbance at 570 nm of each well was measured using an ELISA plate reader. The data represented the mean of three experiments in triplicate and were expressed as means ± SD using Student’s test.
# [2] = test system: human breast cancer cell MDA-MB-231; test: Cell proliferation (MTT) assay, MDA-MB-231; assay type: cell-based
# Experimental: as §1
# [3] = test system: human hepatoma cell SMMC-7721; test: Cell proliferation (MTT) assay, SMMC-7721; assay type: cell-based; conditions: read-out: IC50 SMMC-7721
# Experimental: as §1
# [4] = test system: human gastric cancer cells SGC-7901; test: Cell proliferation (MTT) assay, SGC-7901; assay type: cell-based; conditions: read-out: IC50 SGC-7901
# Experimental: as §1
# [5] = test system: human melanoma cell A375; test: Cell proliferation (MTT) assay, A375; assay type: cell-based
# Experimental: as §1
# [6] = target: T1, telomerase (Homo sapiens, UniProt O14746); test: Telomerase activity TRAP-PCR-ELISA assay (A375 cell extract); assay type: biochemical; conditions: IC50 inhibitory activity against telomerase, TRAP-PCR-ELISA, A375 cells, 24 h treatment
# T1 construct: endogenous in cells; host or cells: A375 human melanoma cells
# Experimental: Thirty-six compounds were tested in a search for inhibitors of telomerase activity using the TRAP-PCR-ELISA assay. In detail, the A375 cells were firstly maintained in RPMI 1640 buffer (Hyclone, Miami, FL), supplemented with 10% fetal bovineserum (GIBCO, New York, NY), streptomycin (0.1 mg/mL) and penicillin (100 IU/mL) at 37 °C in a humidified atmosphere containing 5% CO2. After trypsinisation, 5 × 10^4 cultured cells in logarithmic growth were seeded into T25 flasks (Corning, New York, NY) and cultured to allow to adherence. […] After 24 h treatment, the cells were harvested by cell scraper orderly followed by washing once with PBS. The cells were lysed in 150 µL RIPA cell lysis buffer (Santa Cruz, Santa Cruz, CA), and incubated on ice for 30 min. The cellular supernatants were obtained via centrifugation at 12,000g for 20 min at 4 °C and stored at –80 °C. The TRAP-PCR-ELISA assay was performed using a telomerase detection kit (Roche, Basel, Switzerland) according to the manufacturer’s protocol. In brief, 2 µL of cell extracts were mixed with 48 µL TRAP reaction mixtures. TRAP primers and Taq polymerase are incubated at 25 °C for 30 min. PCR was then initiated at 94 °C, 120 s for predenaturation and performed using 35 cycles each consisting of 94 °C for 30 s, 50 °C for 30 s, 72 °C for 90 s. Then 20 µL of PCR products were hybridised to a digoxigenin (DIG)-labelled telomeric repeat specific detection probe. And the PCR products were immobilised via the biotin-labelled primer to a streptavidin-coated microtiter plate subsequently. The immobilised DNA fragments were detected with a peroxidase-conjugated anti-DIG antibody and visualised following the addition of the stop regent. The microtitre plate was assessed on TECAN Infinite M200 microplate reader (Mannedorf, Switzerland) at a wavelength of 490 nm, and the final value were presented as mean ± SD[23].
# [7] = antiproliferative, MTT, 48 h exposure
# [8] = antiproliferative, MTT, 48 h exposure, read-out: IC50 MDA-MB-231
# [9] = antiproliferative, MTT, 48 h exposure, read-out: IC50 A375
# [10] = Homo sapiens, A-375, 48 h, read-out: IC50 A375, antiproliferative, MTT, 48 h exposure
# [11] = Homo sapiens, MDA-MB-231, 48 h, read-out: IC50 MDA-MB-231, antiproliferative, MTT, 48 h exposure
# T1 sequence (O14746 whole entry): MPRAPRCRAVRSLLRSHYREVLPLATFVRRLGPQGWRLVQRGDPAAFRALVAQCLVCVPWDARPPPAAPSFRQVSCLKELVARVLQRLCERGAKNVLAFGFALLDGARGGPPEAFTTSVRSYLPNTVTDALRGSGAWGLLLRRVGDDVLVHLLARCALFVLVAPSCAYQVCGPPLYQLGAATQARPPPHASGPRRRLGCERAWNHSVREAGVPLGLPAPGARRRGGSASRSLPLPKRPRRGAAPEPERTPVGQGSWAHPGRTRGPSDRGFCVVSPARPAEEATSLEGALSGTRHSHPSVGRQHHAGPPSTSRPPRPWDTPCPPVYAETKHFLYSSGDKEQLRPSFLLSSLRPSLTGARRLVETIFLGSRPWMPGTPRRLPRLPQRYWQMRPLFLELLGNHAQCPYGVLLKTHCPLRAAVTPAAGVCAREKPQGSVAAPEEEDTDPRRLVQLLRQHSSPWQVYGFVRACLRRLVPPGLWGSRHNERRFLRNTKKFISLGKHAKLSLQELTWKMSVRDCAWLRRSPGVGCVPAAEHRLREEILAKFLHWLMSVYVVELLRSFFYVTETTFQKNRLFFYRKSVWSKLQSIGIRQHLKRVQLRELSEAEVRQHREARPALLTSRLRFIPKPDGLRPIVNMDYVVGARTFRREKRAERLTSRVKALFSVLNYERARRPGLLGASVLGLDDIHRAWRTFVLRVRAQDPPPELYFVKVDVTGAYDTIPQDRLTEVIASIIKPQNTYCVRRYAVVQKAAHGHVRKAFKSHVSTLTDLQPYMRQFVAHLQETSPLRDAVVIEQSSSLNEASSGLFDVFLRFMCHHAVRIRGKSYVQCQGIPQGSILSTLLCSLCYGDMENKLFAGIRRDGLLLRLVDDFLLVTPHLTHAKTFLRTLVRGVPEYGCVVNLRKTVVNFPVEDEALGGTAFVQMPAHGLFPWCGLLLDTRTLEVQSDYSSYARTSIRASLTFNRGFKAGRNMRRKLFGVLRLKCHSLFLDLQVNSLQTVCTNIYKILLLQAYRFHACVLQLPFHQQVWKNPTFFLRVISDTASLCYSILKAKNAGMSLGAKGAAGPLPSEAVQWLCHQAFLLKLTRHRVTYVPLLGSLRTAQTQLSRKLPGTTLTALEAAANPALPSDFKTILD
Structure (SMILES),"IC50 [1, 7] [µM]","IC50 [2, 8] [µM]","IC50 [3, 7] [µM]","IC50 [5, 9] [µM]",IC50 [6] [µM],"IC50 ([3]; Homo sapiens, SMMC-7721, 48 h) [µM]","IC50 [5, 10] [µM]","IC50 [2, 11] [µM]",also measured
"COc1cccc2c1C(=O)c1c(O)c3c(c(O)c1C2=O)C[C@@](O)(C(=O)CO)C[C@@H]3O[C@H]1C[C@H](N)[C@H](O)[C@H](C)O1 [AMD, Doxorubicin, reference compound]",,,,,,,,,"IC50 ([1]; Homo sapiens, MGC-803, antiproliferative, MTT, 48 h exposure): 0.67 ± 0.08 µM; IC50 ([2]; Homo sapiens, MDA-MB-231, 48 h, antiproliferative, MTT, 48 h exposure, read-out: IC50 MDA-MB-231): 0.81 ± 0.11 µM; IC50 ([3]; Homo sapiens, SMMC-7721, antiproliferative, MTT, 48 h exposure): 1.05 ± 0.09 µM; IC50 ([4]; Homo sapiens, SGC-7901, antiproliferative, MTT, 48 h exposure): 0.92 ± 0.08 µM; IC50 ([5]; Homo sapiens, A-375, 48 h, antiproliferative, MTT, 48 h exposure, read-out: IC50 A375): 0.52 ± 0.14 µM"
CCc1ccc(/C=C/S(=O)(=O)F)cc1 [Compound 2],28.6 ± 1.27,58.6 ± 1.78,28.5 ± 1.47,22.8 ± 0.71,,,,,
O=S(=O)(F)/C=C/c1ccc(F)cc1 [Compound 6],,,,,2.98 ± 0.59,15.9 ± 0.35,5.99 ± 0.49,,"IC50 ([1]; Homo sapiens, MGC-803, 48 h): 44.2 ± 1.25 µM; IC50 ([2]; read-out: IC50 MDA-MB-231, antiproliferative, MTT, 48 h exposure): 9.2 ± 1.27 µM"
O=S(=O)(F)/C=C/c1ccc(Cl)cc1 [Compound 7],,,,,3.02 ± 0.44,13.3 ± 0.39,9.84 ± 0.78,12.3 ± 0.64,"IC50 ([1]; Homo sapiens, MGC-803, 48 h): 12.9 ± 0.3 µM"
O=S(=O)(F)/C=C/c1ccc(Br)cc1 [Compound 8],,,,,4.33 ± 0.77,10.7 ± 0.8,9.12 ± 0.82,17.5 ± 1.77,"IC50 ([1]; Homo sapiens, MGC-803, 48 h): 17.2 ± 0.41 µM"
O=S(=O)(F)/C=C/c1ccc(OC(F)(F)F)cc1 [Compound 9],38.6 ± 1.22,36.5 ± 2.56,9.04 ± 0.99,24.1 ± 0.99,,,,,
O=S(=O)(F)/C=C/c1ccc(C(F)(F)F)cc1 [Compound 10],24.9 ± 0.82,29.8 ± 2.31,40.1 ± 1.66,5.43 ± 0.4,,,,,
CC(=O)c1cccc(/C=C/S(=O)(=O)F)c1 [Compound 21],,23.1 ± 2.78,11.8 ± 0.6,16.6 ± 0.91,,,,,"IC50 [4, 7]: 30.8 ± 2 µM"
O=S(=O)(F)/C=C/c1ccc(O)cc1 [Compound 33],35.9 ± 0.79,19 ± 0.65,26.2 ± 0.39,4.96 ± 0.51,,,,,
O=S(=O)(F)/C=C/c1cccs1 [Compound 40],,18.3 ± 0.8,35.6 ± 0.55,6.73 ± 0.5,,,,,"IC50 [4, 7]: 51.3 ± 2.55 µM"
O=S(=O)(F)/C=C/c1cccc2c1sc1ccccc12 [Compound 43],,44 ± 1.2,34.5 ± 0.77,38.6 ± 0.61,,,,,"IC50 [4, 7]: 24.8 ± 0.89 µM"
O=S(=O)(F)/C=C/C=C/c1ccccc1 [Compound 48],,,,,40.2 ± 1.3,51 ± 1.91,27.4 ± 1.5,39.7 ± 1.39,"IC50 ([4]; Homo sapiens, SGC-7901, 48 h): 49.1 ± 1.39 µM"
Cc1ccc(/C=C/C=C/S(=O)(=O)F)cc1 [Compound 49],,35.2 ± 1.4,48.5 ± 1.65,32.8 ± 1.44,,,,,"IC50 [4, 7]: 49.79 ± 0.47 µM"
CC(C)(C)c1ccc(/C=C/C=C/S(=O)(=O)F)cc1 [Compound 50],,31.6 ± 1.2,29.1 ± 1.27,20.7 ± 1.39,,,,,"IC50 [4, 7]: 26.9 ± 0.56 µM"
COc1cc(/C=C/C=C/S(=O)(=O)F)cc(OC)c1 [Compound 56],,,,,3.2 ± 0.55,19.3 ± 0.82,6.92 ± 0.44,12.2 ± 0.92,"IC50 ([4]; Homo sapiens, SGC-7901, 48 h): 34.5 ± 1.04 µM"
Cc1ccc(S(=O)(=O)n2cc(/C=C/S(=O)(=O)F)cn2)cc1 [Compound 61],,,,,,28.2 ± 1.49,27.3 ± 1,26.9 ± 1.2,"IC50 ([1]; Homo sapiens, MGC-803, 48 h): 27.1 ± 1.03 µM"
CS(=O)(=O)c1ccc(/C=C/S(=O)(=O)F)cc1 [Compound 66],19.6 ± 1.17,30.3 ± 1.22,52 ± 1.7,8.56 ± 0.49,,,,,
COc1cc(/C=C/S(=O)(=O)F)cc(OC)c1 [Compound 67],,,,,1.87 ± 0.47,15 ± 0.6,8.29 ± 0.42,12.1 ± 0.37,"IC50 ([1]; Homo sapiens, MGC-803, 48 h): 16.1 ± 0.82 µM; IC50 ([4]; Homo sapiens, SGC-7901, 48 h): 50.3 ± 1.17 µM"
O=S(=O)(F)/C=C/c1cc(C(F)(F)F)cc(C(F)(F)F)c1 [Compound 68],37.4 ± 1.35,21.2 ± 0.8,,19.7 ± 1,,,,,
O=S(=O)(F)/C=C/c1cc(Cl)cc(Cl)c1 [Compound 69],,,,,4.22 ± 0.71,11.5 ± 0.39,8.79 ± 0.61,7.95 ± 0.4,"IC50 ([1]; Homo sapiens, MGC-803, 48 h): 25.1 ± 0.54 µM; IC50 ([4]; Homo sapiens, SGC-7901, 48 h): 36.8 ± 1.25 µM"
COc1ccc(Cl)cc1/C=C/S(=O)(=O)F [Compound 71],,,,,6.08 ± 1.3,23.2 ± 0.78,8.65 ± 0.33,8.09 ± 0.52,"IC50 ([1]; Homo sapiens, MGC-803, 48 h): 20.8 ± 0.79 µM"
O=S(=O)(F)/C=C/c1cccc(I)c1 [Compound 72],44.9 ± 1.13,22.6 ± 1,16.1 ± 0.91,13 ± 0.77,,,,,
O=S(=O)(F)/C=C/c1ccccc1F [Compound 73],57.7 ± 1.44,25.6 ± 0.97,,11.2 ± 0.81,,,,,
CC(C)c1cccc(/C=C/S(=O)(=O)F)c1 [Compound 74],35.3 ± 1.25,34.7 ± 1.2,,26.8 ± 1.22,,,,,"IC50 [4, 7]: 31.8 ± 0.82 µM"
O=S(=O)(F)/C=C/c1ccccc1Br [Compound 76],,36 ± 1.2,,18 ± 1.09,,,,,"IC50 [4, 7]: 50.2 ± 1.79 µM"
CCOC(=O)c1cccc(/C=C/S(=O)(=O)F)c1 [Compound 77],51.8 ± 0.87,19.4 ± 0.79,23.6 ± 1.45,13.7 ± 1.29,,,,,
O=S(=O)(F)/C=C/c1cc(Cl)nc(Cl)c1 [Compound 80],,,,,49.3 ± 2.55,,,,"IC50 ([4]; Homo sapiens, SGC-7901, 48 h): 26.8 ± 1.01 µM"
CS(=O)(=O)c1cccc(/C=C/S(=O)(=O)F)c1 [Compound 81],,,,,2.55 ± 0.4,34.9 ± 1.7,7.89 ± 0.56,27.8 ± 1.32,
CC(C)S(=O)(=O)c1ccc(/C=C/S(=O)(=O)F)cc1 [Compound 82],,,,,37.9 ± 2.19,8.95 ± 0.27,24.2 ± 0.6,28.7 ± 1.21,
